Data on one compound can be found in patent US5304560A, “Quinazoline derivatives and their preparation” (Fujisawa Pharmaceutical Co., Ltd., priority 1990, dated 1994).

Test [1] concerns reserpine-induced DOPA accumulation. The test is described as follows: Inhibition of reserpine-induced DOPA accumulation. The format is in vivo, Male SD rats. The conditions noted are these: dose 3.2 mg/kg, oral, 2 hours before sacrifice; reserpine 1 mg/kg s.c. 17-19 hours before; striatum DOPA. Here is the method: Test 2 [Inhibition of reserpine-induced DOPA accumulation]
Male SD rats weighing 300-400 g were used in this test. Rats were pretreated with reserpine (1 mg/kg, S.C.) 17-19 hours before sacrifice and then fasted. Test Compound was given orally to the rats 2 hours before sacrifice. [m-Hydroxybenzylhydrazine (100 mg/kg, i.p.) was given 30 minutes before sacrifice.] Each rat was exposed to microwaves using a head-focus microwave applicator for 1.5 seconds. The whole brain was removed and further separated into the striatum.
DOPA was determined as follows; the striatum was homogenized in 9 volumes of 0.1N perchloric acid solution (0.4% EDTA·2Na). The homogenate was centrifuged at 10,000 rpm for 1 minutes. The supernatant was applied to high performance liquid chromatography.

The target in test [2] is T1, DA2 receptor (Rattus norvegicus, UniProt P61169).
T1 construct: The final tissue concentration of rat striatum was 160 μg/ml; from tissue; host or cells: rat striatum (printed 'stratum'), washed homogenate
Kind of test: Dopamine receptor (DA2 receptor) binding assay. The note with it: [3H]spiperone 0.2 nM; rat striatum 160 μg/ml; 37° C., 10 minutes, pH 7.4. The method, then: Test 1 [Dopamine receptor (DA2 receptor) binding assay]
The affinity for DA2 receptor of a Test Compound was determined following in vitro receptor binding assays.
Male rats weighing 150-300 g were decapitated and the stratum were dissected from their brains. The tissue was homogenized in 30 volumes of buffer which consisted of 50 mM Tris-HCl (pH 7.4 at 25° C.), 120 mM sodium chloride, 5 mM potassium chloride, 1 mM calcium chloride, 1 mM magnesium chloride, 10 μM pargirine, and 0.1% ascorbic acid. The homogenate was centrifuged at 50,000 g for 15 minutes. The pellet was resuspended in 30 volumes of the buffer. The tissue suspension was centrifuged and suspended again in the same way.
Incubation tubes received 100 μl of [phenyl-4-^3 H]spiperone, 100 μl of the Test Compound and 0.8 ml of tissue suspension during binding assays. The concentration of [phenyl-4-^3 H]spiperone was 0.2 nM. The final tissue concentration of rat striatum was 160 μg/ml. […] The filters were counted by liquid scintillation counter.
Specific binding of the [^3 H]spiperone was determined in the presence of 1 μM butaclamol. The IC50 value of the Test Compound was calculated from the data of [^3 H]spiperone binding in the presence of 10^-9 M, 10^-8 M, 10^-7 M and 10^-6 M Test Compound.

Test [3] relates to spontaneous hypertensive rats. Kind of test: Hypotensive effect on spontaneous hypertensive rats. It counts as in vivo, rat. The conditions noted are these: dose 1 mg/kg, oral, in 0.5% methylcellulose; 15 to 25-week-old male spontaneous hypertensive rats. The method, then: Test 3 [Hypotensive effect on spontaneous hypertensive rats]
15 to 25-Week-old male spontaneous hypertensive rats with mean arterial blood pressure of about 160-200 mmHg, weighing 300-350 g, were used. The animals were cannulated in the left femoral artery and the mean blood pressure and heart rate were measured with a pressure-transducer. The animals were deprived of food for about 18 hours before oral dosing. The Test Compound was suspended in 0.5% methylcellulose, and given orally.

T1 sequence (P61169 whole entry): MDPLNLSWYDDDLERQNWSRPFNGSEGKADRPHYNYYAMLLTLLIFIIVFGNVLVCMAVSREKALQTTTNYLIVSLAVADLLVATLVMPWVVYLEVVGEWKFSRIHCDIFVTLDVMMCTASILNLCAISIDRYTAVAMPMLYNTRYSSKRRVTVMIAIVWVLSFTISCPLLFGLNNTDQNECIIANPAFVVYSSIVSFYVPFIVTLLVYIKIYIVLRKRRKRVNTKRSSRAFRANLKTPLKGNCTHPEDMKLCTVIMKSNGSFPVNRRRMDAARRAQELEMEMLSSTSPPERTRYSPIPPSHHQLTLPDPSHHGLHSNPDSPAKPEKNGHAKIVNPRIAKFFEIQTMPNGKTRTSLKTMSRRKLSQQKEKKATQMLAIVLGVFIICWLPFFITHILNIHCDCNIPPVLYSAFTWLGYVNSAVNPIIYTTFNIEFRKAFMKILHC

A word on the IC50: it is the concentration needed to halve the response being measured. The low end stands for higher potency, the high end for lower potency. Turning to `Br.O=c1[nH]c(=O)n(CCCCN2CC=C(c3ccccc3)CC2)c2cc(O)ccc12` [Compound A, 1-[4-(4-phenyl-1,2,3,6-tetrahydropyridin-1-yl)butyl]-7-hydroxy-2,4(1H,3H)-quinazolinedione hydrobromide], the “Inhibition (%)” value in test [1] stood at 10%. In addition, the IC50 in test [2] amounted to 7.4 nM. Besides, in test [3], the “Maximum decrease of blood pressure (%)” value came to 19%.
